Data on 25 compounds can be found in US12209096B2, “Compounds and compositions for inducing chondrogenesis” (NOVARTIS AG, priority 2017, dated 2025).

Like-named read-outs stand apart in the source and are kept apart here.

In the test the test system is NHACs. The test can be described thus: calcium flux assay. Format: cell-based, human. The note with it: for Emax: read-out: (A) % Efficacy. The method, then: NHACs were plated in 1536 Greiner plate at 2000 cells/well in 4 ul volume. 24 hours later, 4 ul of Calcium 5 dye solution (Hank's Balanced Salt/HEPES buffer containing 5 mM of Probenecid) was then added and incubated for 1 hour at room temperature. Fluorescence readings at excitation wavelength of 470-495 nm and emission wavelength of 515-575 nm were done using FLIPR high-throughput screening system (Molecular Devices, Sunnyvale, CA). The test compound was then added to each well at the indicated dose. Signal was measured prior compound dispense and after using a first interval of 1 second for 60 reads and second interval of 3 second for 20 reads. Data was analyzed using Molecular Devices ScreenWorks® Software.

As for `Cc1cc([C@H]2[C@H]3O[C@H](C[C@@H]3O)[C@@H]2C(=O)Nc2cccc(C(F)(F)F)c2)ccn1` [Example 85, (1R,2R,3S,4R,5S)-5-hydroxy-3-(2-methylpyridin-4-yl)-N-(3-(trifluoromethyl)phenyl)-7-oxabicyclo[2.2.1]heptane-2-carboxamide], under “Homo sapiens”, the EC50 was over 50 µM and the Emax worked out at 56%.
As for `O=C(Nc1ccc(Cl)c(Cl)c1)[C@H]1[C@@H](c2cc(F)ncc2F)[C@H]2O[C@@H]1C[C@@H]2O` [Example 58, (1R,2S,3S,4R,5S)—N-(3,4-dichlorophenyl)-3-(2,5-difluoropyridin-4-yl)-5-hydroxy-7-oxabicyclo[2.2.1]heptane-2-carboxamide], for the setting “Homo sapiens”, the EC50 was over 50 µM and the Emax turned out to be 0%.
Regarding `COc1ccc(NC(=O)[C@@H]2[C@@H]3O[C@@H]([C@H]4C[C@H]43)[C@@H]2c2ccnc(F)c2F)cn1` [Example 34, (1S,2S,4R,5R,6S,7S)-7-(2,3-difluoropyridin-4-yl)-N-(6-methoxypyridin-3-yl)-8-oxatricyclo[3.2.1.0^2,4]octane-6-carboxamide], for the setting “Homo sapiens”, the EC50 was over 50 µM and the Emax is 3%.
For `O=C(Nc1cccc(C(F)(F)F)c1)[C@H]1[C@@H]2O[C@@H]([C@H]3C[C@H]32)[C@@H]1c1ccncc1` [Example 131, (1S,2S,4R,5R,6R,7S)-7-(pyridin-4-yl)-N-(3-(trifluoromethyl)phenyl)-8-oxatricyclo[3.2.1.0^2,4]octane-6-carboxamide], in that order: 19 µM and 360%.
The matching figures for `O=C(Nc1ccc(Cl)c(Cl)c1)[C@H]1[C@@H]2O[C@@H](C[C@H]2F)[C@@H]1c1ccnc(F)c1` [Example 112, (1S,2R,3S,4S,6R)—N-(3,4-dichlorophenyl)-6-fluoro-3-(2-fluoropyridin-4-yl)-7-oxabicyclo[2.2.1]heptane-2-carboxamide]: 28 µM and 99%.
Turning to `O=C(Nc1cnc(Cl)c(Cl)c1)[C@@H]1[C@@H](c2ccnc(F)c2F)[C@H]2O[C@@H]1C[C@@H]2O` [Example 91, (1R,2R,3S,4R,5S)—N-(5,6-dichloropyridin-3-yl)-3-(2,3-difluoropyridin-4-yl)-5-hydroxy-7-oxabicyclo[2.2.1]heptane-2-carboxamide], for the setting “Homo sapiens”, the EC50 was 4.4 µM and the Emax is 66%.
For `O=C(Nc1ccc(Cl)c(Cl)c1)[C@@H]1[C@@H](c2cncnc2)[C@H]2O[C@@H]1C[C@@H]2O` [Example 141, (1R,2R,3S,4R,5S)—N-(3,4-dichlorophenyl)-5-hydroxy-3-(pyrimidin-5-yl)-7-oxabicyclo[2.2.1]heptane-2-carboxamide], in that order: 13 µM and 43%.
Take `Cc1cc([C@H]2[C@H]3O[C@H](C[C@@H]3O)[C@@H]2C(=O)Nc2cnc(C)c(Cl)c2)ccn1` [Example 81, (1R,2R,3S,4R,5S)—N-(5-chloro-6-methylpyridin-3-yl)-5-hydroxy-3-(2-methylpyridin-4-yl)-7-oxabicyclo[2.2.1]heptane-2-carboxamide]: for the setting “Homo sapiens”, the EC50 was found to be 2.7 µM and the Emax came to 34%.
`Cc1cc([C@H]2[C@H]3O[C@H]([C@H](O)[C@@H]3O)[C@@H]2C(=O)Nc2ccnc(C(F)(F)F)c2)ccn1` [Example 161, (1S,2R,3S,4R,5S,6R)-5,6-dihydroxy-3-(2-methylpyridin-4-yl)-N-(2-(trifluoromethyl)pyridin-4-yl)-7-oxabicyclo[2.2.1]heptane-2-carboxamide]: where the note is “Homo sapiens”, the concentration giving a half-maximal response (EC50) was over 50 µM and the Emax amounted to 29%.
As to `O=C(Nc1ccc(Cl)c(Cl)c1)[C@H]1[C@@H]2O[C@@H]([C@H]3C[C@H]32)[C@@H]1c1cnc(F)nc1` [Example 129, (1S,2S,4R,5R,6R,7S)—N-(3,4-dichlorophenyl)-7-(2-fluoropyrimidin-5-yl)-8-oxatricyclo[3.2.1.0^2,4]octane-6-carboxamide], under “Homo sapiens”, the EC50 worked out at 10 µM and the Emax came out at 146%.
In the case of `COc1cc([C@H]2[C@H]3O[C@H](C[C@@H]3O)[C@H]2C(=O)Nc2ccc(Cl)c(Cl)c2)ccn1` (racemic) [Example 49, rac-(1R,2S,3S,4R,5S)—N-(3,4-dichlorophenyl)-5-hydroxy-3-(2-methoxypyridin-4-yl)-7-oxabicyclo[2.2.1]heptane-2-carboxamide], for the setting “Homo sapiens”, the concentration giving a half-maximal response (EC50) is 11 µM and the Emax is 77%.
The matching figures for `O=C(Nc1cccc(C(F)(F)F)c1)[C@H]1[C@@H]2O[C@@H]([C@H]3C[C@H]32)[C@@H]1c1ccnc(F)c1` [Example 134, (1S,2S,4R,5R,6R,7S)-7-(2-fluoropyridin-4-yl)-N-(3-(trifluoromethyl)phenyl)-8-oxatricyclo[3.2.1.0^2,4]octane-6-carboxamide]: 19 µM and 249%.
As for `Nc1ncc([C@H]2[C@H]3O[C@H](C[C@@H]3F)[C@H]2C(=O)Nc2ccc(Cl)c(Cl)c2)cn1` [Example 20, (1R,2S,3S,4R,5S)-3-(2-aminopyrimidin-5-yl)-N-(3,4-dichlorophenyl)-5-fluoro-7-oxabicyclo[2.2.1]heptane-2-carboxamide], for the setting “Homo sapiens”, the EC50 is over 50 µM and the Emax stood at 5%.
For `Cc1ccc([C@H]2[C@H]3O[C@H](C[C@@H]3O)[C@H]2C(=O)Nc2ccc(Cl)c(Cl)c2)cn1` [Example 48, (1R,2S,3S,4R,5S)—N-(3,4-dichlorophenyl)-5-hydroxy-3-(6-methylpyridin-3-yl)-7-oxabicyclo[2.2.1]heptane-2-carboxamide], in that order: 22 µM and 80%.
The matching figures for `O=C(Nc1ccc(Cl)c(Cl)c1)[C@H]1[C@@H](c2cnc(C(F)(F)F)nc2)[C@H]2O[C@@H]1C[C@@H]2O` [Example 62, (1R,2S,3S,4R,5S)—N-(3,4-dichlorophenyl)-5-hydroxy-3-(2-(trifluoromethyl)pyrimidin-5-yl)-7-oxabicyclo[2.2.1]heptane-2-carboxamide]: 8.2 µM and 61%.
Regarding `O=C(Nc1ccc(Cl)c(Cl)c1)[C@@H]1[C@@H](c2ccnc(F)c2)[C@H]2O[C@@H]1C[C@@H]2F` [Example 111, (1R,2R,3S,4R,5S)—N-(3,4-dichlorophenyl)-5-fluoro-3-(2-fluoropyridin-4-yl)-7-oxabicyclo[2.2.1]heptane-2-carboxamide], for the setting “Homo sapiens”, the EC50 is 28 µM and the Emax was 87%.
Regarding `Cc1cc([C@@H]2[C@@H](C(=O)Nc3cccc(C(F)(F)F)c3)[C@@H]3O[C@H]2C[C@H]3O)ccn1` [Example 86, (1S,2R,3S,4S,6R)-6-hydroxy-3-(2-methylpyridin-4-yl)-N-(3-(trifluoromethyl)phenyl)-7-oxabicyclo[2.2.1]heptane-2-carboxamide], under “Homo sapiens”, the EC50 is over 50 µM and the Emax was determined as 38%.
`O=C(Nc1ccc(Cl)c(Cl)c1)[C@@H]1[C@@H](c2ccnc(F)c2)[C@H]2O[C@@H]1C[C@@H]2O` (racemic) [Example 142, rac-(1R,2R,3S,4R,5S)—N-(3,4-dichlorophenyl)-3-(2-fluoropyridin-4-yl)-5-hydroxy-7-oxabicyclo[2.2.1]heptane-2-carboxamide]: where the note is “Homo sapiens”, the EC50 worked out at 28 µM and the Emax amounted to 142%.
The matching figures for `O=C(Nc1ccc(Cl)c(Cl)c1)[C@H]1[C@@H]2O[C@@H]([C@H]3C[C@H]32)[C@@H]1c1cnc(N2CCOCC2)nc1` [Example 133, (1S,2S,4R,5R,6R,7S)—N-(3,4-dichlorophenyl)-7-(2-morpholinopyrimidin-5-yl)-8-oxatricyclo[3.2.1.0^2,4]octane-6-carboxamide]: 25 µM and 158%.
With `O=C(Nc1cnc(Cl)c(Cl)c1)[C@@H]1[C@@H](c2ccnc(F)c2)[C@H]2O[C@@H]1C[C@H]2NCCO` [Example 176, (1R,2R,3S,4R,5R)—N-(5,6-dichloropyridin-3-yl)-3-(2-fluoropyridin-4-yl)-5-((2-hydroxyethyl)amino)-7-oxabicyclo[2.2.1]heptane-2-carboxamide], for the setting “Homo sapiens”, the EC50 stood at 25 µM and the Emax is 51%.
The matching figures for `O=C(Nc1ccc(Cl)c(Cl)c1)[C@@H]1[C@@H]2O[C@@H]([C@H]3C[C@H]32)[C@@H]1c1cnc(N2CCOCC2)nc1` [Example 40, (1S,2S,4R,5R,6S,7S)—N-(3,4-dichlorophenyl)-7-(2-morpholinopyrimidin-5-yl)-8-oxatricyclo[3.2.1.0^2,4]octane-6-carboxamide]: over 50 µM and 37%.
On to `O=C(Nc1ccc(Cl)c(Cl)c1)[C@H]1[C@H]2O[C@H]([C@@H]3C[C@@H]32)[C@H]1c1cncnc1` (single isomer, unassigned) [Example 28], for which, where the note is “Homo sapiens”, the concentration for a half-maximal effect (EC50) was 23 µM and the Emax turned out to be 167%.
As to “(1S,2S,4R,5R,6S,7S)-N-(3,4-dichlorophenyl)-7-(2-methylpyridin-4-yl)-8-oxatricyclo[3.2.1.0^2,4]octane-6-carboxamide [Example 23]”, the “(A) % Efficacy” value came out at 54% and the EC50 was over 50 µM.
For the compound `O=C(Nc1cccc(C(F)(F)F)c1)[C@H]1[C@@H]2O[C@@H]([C@H]3C[C@H]32)[C@@H]1c1cncnc1` [Example 130, (1S,2S,4R,5R,6R,7S)-7-(pyrimidin-5-yl)-N-(3-(trifluoromethyl)phenyl)-8-oxatricyclo[3.2.1.0^2,4]octane-6-carboxamide], for the setting “Homo sapiens”, the EC50 came to 10 µM and the Emax was determined as 237%.
For `Cc1cc([C@H]2[C@H]3O[C@H]([C@@H]4C[C@@H]43)[C@@H]2C(=O)Nc2ccc(Cl)c(C#N)c2)ccn1` [Example 66, (1S,2S,4R,5R,6R,7S)—N-(4-chloro-3-cyanophenyl)-7-(2-methylpyridin-4-yl)-8-oxatricyclo[3.2.1.0^2,4]octane-6-carboxamide], where the note is “Homo sapiens”, the EC50 amounted to 20 µM and the Emax is 179%.
